From the RepoRT retention time repository (doi:10.1016/j.jchromb.2020.122105)

Key:
Settings in all cases: stereoisomer not certain
[1] = RP, Waters CORTECS T3, 100 × 2.1 mm, 2.7 µm, 0.3 mL/min, estimated dead time 0.73 min; A: water + 0.1% formic acid, pH 3; B: methanol + 0.1% formic acid, pH 3; gradient (min/%B) 0/5 5/5 25/100 30/100 30.1/5 35/5
[2] = RP, Waters CORTECS T3, 100 × 2.1 mm, 2.7 µm, 0.3 mL/min, estimated dead time 0.73 min; A: water + 0.1% formic acid, pH 3; B: methanol + 0.1% formic acid, pH 3; gradient (min/%B) 0/0 5/0 25/100 30/100 30.1/0 35/0
[3] = RP, Waters CORTECS T3, 100 × 2.1 mm, 2.7 µm, 0.1 mL/min, estimated dead time 2.2 min; A: water + 0.1% formic acid, pH 3; B: methanol + 0.1% formic acid, pH 3; gradient (min/%B) 0/0 1/0 6/5 30/100 35/100 35.1/0 40/0
[4] = RP, Waters CORTECS T3, 100 × 2.1 mm, 2.7 µm, 0.3 mL/min, estimated dead time 0.73 min; A: water + 0.1% formic acid, pH 3; B: methanol + 0.1% formic acid, pH 3; gradient (min/%B) 0/0 1/0 6/5 30/100 35/100 35.1/0 40/0
[5] = RP, Waters CORTECS T3, 100 × 2.1 mm, 2.7 µm, 0.3 mL/min, estimated dead time 0.73 min; A: water + 0.1% formic acid, pH 3; B: methanol + 0.1% formic acid, pH 3; gradient (min/%B) 0/5 5/5 25/95 25.1/100 35/100 35.1/5 45/5
[6] = RP, Waters ACQUITY UPLC BEH C18, 100 × 2.1 mm, 1.7 µm, 0.1 mL/min, estimated dead time 2.2 min; A: water + 0.1% formic acid, pH 3; B: methanol + 0.1% formic acid, pH 3; gradient (min/%B) 0/5 5/5 25/100 30/100 30.1/5 35/5
[7] = RP, Waters CORTECS T3, 100 × 2.1 mm, 2.7 µm, 0.2 mL/min, estimated dead time 1.1 min; A: water + 0.045% formic acid + 0.11% ammonium hydroxide, pH 7; B: methanol; gradient (min/%B) 0/5 5/5 25/95 25.1/100 35/100 35.1/5 45/5
[8] = RP, Waters ACQUITY UPLC BEH C18, 100 × 2.1 mm, 1.7 µm, 0.1 mL/min, estimated dead time 2.2 min; A: water + 0.045% formic acid + 0.11% ammonium hydroxide, pH 7; B: methanol; gradient (min/%B) 0/5 5/5 25/95 25.1/100 35/100 35.1/5 45/5
[9] = RP, Waters ACQUITY UPLC BEH C18, 100 × 2.1 mm, 1.7 µm, 0.2 mL/min, estimated dead time 1.1 min; A: water + 0.025% formic acid + 20 mM ammonium acetate + 0.055% ammonium hydroxide, pH 7; B: methanol; gradient (min/%B) 0/5 5/5 25/100 30/100 30.1/5 35/5
[10] = RP, Waters CORTECS T3, 100 × 2.1 mm, 2.7 µm, 0.1 mL/min, estimated dead time 2.2 min; A: water + 0.1% formic acid, pH 3; B: methanol + 0.1% formic acid, pH 3; gradient (min/%B) 0/5 5/5 25/95 25.1/100 35/100 35.1/5 45/5
[11] = RP, Waters CORTECS T3, 100 × 2.1 mm, 2.7 µm, 0.25 mL/min, estimated dead time 0.88 min; A: water + 0.1% formic acid, pH 3; B: methanol + 0.1% formic acid, pH 3; gradient (min/%B) 0/5 5/5 25/95 25.1/100 35/100 35.1/5 45/5
[12] = RP, Waters CORTECS T3, 100 × 2.1 mm, 2.7 µm, 0.2 mL/min, estimated dead time 1.1 min; A: water + 0.1% formic acid, pH 3; B: methanol + 0.1% formic acid, pH 3; gradient (min/%B) 0/0 1/0 6/5 30/100 35/100 35.1/0 40/0
[13] = RP, Waters CORTECS T3, 100 × 2.1 mm, 2.7 µm, 0.15 mL/min, estimated dead time 1.5 min; A: water + 0.1% formic acid, pH 3; B: methanol + 0.1% formic acid, pH 3; gradient (min/%B) 0/0 1/0 6/5 30/100 35/100 35.1/0 40/0
[14] = RP, Waters CORTECS T3, 100 × 2.1 mm, 2.7 µm, 0.25 mL/min, estimated dead time 0.88 min; A: water + 0.1% formic acid, pH 3; B: methanol + 0.1% formic acid, pH 3; gradient (min/%B) 0/0 1/0 6/5 30/100 35/100 35.1/0 40/0
[15] = RP, Thermo Scientific Hypercarb, 150 × 2.1 mm, 5 µm, 0.1 mL/min, estimated dead time 3.3 min; A: water + 0.1% formic acid, pH 3; B: methanol + 0.1% formic acid, pH 3; gradient (min/%B) 0/5 5/5 20/100 35/100 35.1/5 45/5
[16] = RP, Waters CORTECS T3, 100 × 2.1 mm, 2.7 µm, 0.2 mL/min, estimated dead time 1.1 min; A: water + 0.1% formic acid, pH 3; B: methanol + 0.1% formic acid, pH 3; gradient (min/%B) 0/0 1/0 6/5 30/100 35/100 35.1/0 40/0; remark: listed apart in the source
[17] = RP, Waters ACQUITY UPLC BEH C18, 100 × 2.1 mm, 1.7 µm, 0.2 mL/min, estimated dead time 1.1 min; A: water + 0.1% formic acid, pH 3; B: methanol + 0.1% formic acid, pH 3; gradient (min/%B) 0/5 5/5 25/100 30/100 30.1/5 35/5

Row | LC retention time [1] [min] | LC retention time [2] [min] | LC retention time [3] [min] | LC retention time [4] [min] | LC retention time [5] [min] | LC retention time [6] [min] | LC retention time [7] [min] | LC retention time [8] [min] | LC retention time [9] [min] | LC retention time [10] [min] | LC retention time [11] [min] | LC retention time [12] [min] | LC retention time [13] [min] | LC retention time [14] [min] | LC retention time [15] [min] | LC retention time [16] [min] | LC retention time [17] [min] | SMILES
1 | 24.6 | 24.8 | 26.2 | 29 | 25.6 | 29.3 | 26.2 | 30.2 | 26.3 |  |  |  |  |  |  |  |  | CCCCCCCCC=CCCCCCCCC(=O)OCC(O)CO (racemic) [1-OLEOYL-RAC-GLYCEROL]
2 |  |  |  |  |  |  |  |  |  | 2.8 |  |  |  |  |  |  |  | Nc1ccccc1O [2-AMINOPHENOL]
3 |  |  |  |  |  |  |  |  |  |  | 2.78 |  |  |  |  |  |  | COc1cc(C(O)C(=O)O)ccc1O (stereo unspecified) [3-METHOXY-4-HYDROXYMANDELATE]
4 |  | 0.89 |  |  |  | 2.69 | 3.8 | 2.75 | 3.62 |  |  | 1.34 | 1.78 | 1.09 | 24.5 |  |  | Cn1cnc(=N)c2[nH]cnc21 [3-METHYLADENINE]
5 | 8.56 | 10 | 10.1 | 10.1 | 8.59 | 13.3 |  |  |  | 13.4 |  | 11.5 | 12.9 | 10.8 | 30.8 |  |  | O=C(O)Cc1c[nH]c2ccc(O)cc12 [5-HYDROXYINDOLEACETATE]
6 |  |  |  | 0.9 |  | 2.71 | 1.35 |  | 2.21 |  |  |  |  | 1.06 | 16.9 |  |  | Cc1cnc(=O)[nH]c1N [5-METHYLCYTOSINE]
7 |  |  |  |  |  |  |  |  |  |  | 1.08 |  |  |  |  |  |  | O=C(O)C(O)C(O)C(O)C(O)COP(=O)(O)O (stereo unspecified) [6-PHOSPHOGLUCONIC ACID]
8 | 18.1 | 18.6 | 19.9 | 21.1 | 18.6 | 22.3 | 19.9 | 22.9 | 19.4 | 22.9 |  | 22.4 | 23.6 | 21.6 |  |  |  | CC(=O)OCC(=O)C1(O)CCC2C3CCC4=CC(=O)CCC4(C)C3C(O)CC21C (stereo unspecified) [CORTISOL 21-ACETATE]
9 | 16.9 | 17.5 | 18.8 | 19.6 | 17.4 |  | 18.9 | 22.5 |  | 22.1 |  | 21.1 | 22.4 |  |  |  |  | CCOC(=O)Cc1c[nH]c2ccccc12 [ETHYL 3-INDOLEACETATE]
10 |  |  |  |  | 0.9 | 2.74 |  |  |  |  |  |  | 1.78 | 1.09 | 14 | 1.35 | 1.38 | NC(CCSSCCC(N)C(=O)O)C(=O)O (stereo unspecified) [HOMOCYSTINE]
11 | 9.2 |  | 10.6 | 10.8 | 9.27 | 13.6 | 10.7 | 13.7 | 10.6 | 13.8 |  | 12.1 | 13.3 | 11.3 |  |  |  | O=CCc1c[nH]c2ccccc12 [INDOLE-3-ACETALDEHYDE]
12 | 11.8 | 12.8 | 13.6 | 13.6 | 12 | 17.3 |  |  |  | 17.2 |  | 15.3 | 16.7 | 14.4 |  |  |  | N[C@@H](Cc1ccccc1)C(=O)O [L-PHENYLALANINE]
13 | 4.89 | 8.34 | 7.08 | 7.63 |  | 11.2 | 9.97 | 14.1 | 10.1 | 11.1 |  | 9.28 | 10.8 | 8.41 |  |  |  | NC(=O)[C@@H](N)Cc1c[nH]c2ccccc12 [L-TRYPTOPHANAMIDE]
14 | 15.3 | 16 | 17.2 | 17.6 | 15.7 | 20.5 | 17.2 | 20.9 |  | 20.5 |  | 19.3 | 20.6 |  |  |  |  | COC(=O)Cc1c[nH]c2ccccc12 [METHYL INDOLE-3-ACETATE]
15 |  |  |  |  |  | 23.2 | 20.3 | 23.9 | 20 | 23.6 |  |  | 24 |  |  |  |  | CCC=CCC1C(=O)CCC1CC(=O)OC (stereo unspecified) [METHYL JASMONATE]
16 |  |  |  |  |  |  | 1.35 | 2.75 | 1.8 |  |  |  |  |  | 16.2 |  |  | Cc1ncc(CO)c(CN)c1O [PYRIDOXAMINE]
17 |  |  |  |  |  |  |  |  |  | 4.88 |  |  |  |  |  |  |  | CC=CC=CC(=O)O [SORBATE]
18 |  | 0.91 |  | 0.9 |  | 2.71 |  |  | 1.39 |  |  |  | 1.8 | 1.06 |  |  | 1.36 | O=C(O)C=Cc1cnc[nH]1 [UROCANATE]

Row | SMILES | LC retention time [1] [min] | LC retention time [2] [min] | LC retention time [3] [min] | LC retention time [4] [min] | LC retention time [5] [min] | LC retention time [6] [min] | LC retention time [7] [min] | LC retention time [8] [min] | LC retention time [9] [min] | LC retention time [10] [min] | LC retention time [11] [min] | LC retention time [12] [min] | LC retention time [13] [min] | LC retention time [14] [min] | LC retention time [15] [min] | LC retention time [16] [min] | LC retention time [17] [min]
19 | CCCCC(CC)COC(=O)c1ccccc1C(=O)OCC(CC)CCCC (stereo unspecified) [BIS(2-ETHYLHEXYL)PHTHALATE] | 25.4 | 25.5 | 26.7 | 30 | 26.4 | 30 | 26.7 | 30.8 |  |  |  |  | 32.3 | 30.4 |  |  | 
